Where two headings read alike, the source gives them in different places.
Tests used:
A2780 cells = test: In-Vitro Cell Proliferation Assay (SRB)
NAMPT = NAMPT (Homo sapiens (Human), UniProt P43490); test: Biochemical Inhibition Assay (NAMPT enzymatic reaction, NMN quantified by mass spectrometry); conditions: 33 nM recombinant His-tagged NAMPT, 1 μM NAM, 30 min at rt
Experimental: Assay 1: Biochemical Inhibition Assay
NAMPT protein purification. Recombinant His-tagged NAMPT was produced in E. coli cells, purified over a Ni column, and further purified over a size-exclusion column by XTAL Biostructures.
The NAMPT Enzymatic Reaction. The NAMPT enzymatic reactions were carried out in Buffer A (50 mM Hepes pH 7.5, 50 mM NaCl, 5 mM MgCl2, and 1 mM THP) in 96-well V-bottom plates. The compound titrations were performed in a separate dilution plate by serially diluting the compounds in DMSO to make a 100× stock. […] The compound and enzyme mixture was incubated for 15 min at rt, then 10 μL of 10× substrate and co-factors in Buffer A were added to the test well to make a final concentration of 1 μM NAM, […] 5-Phospho-D-ribose 1-diphosphate (PRPP), and 2.5 mM Adenosine 5′-triphosphate (ATP). The reaction was allowed to proceed for 30 min at rt, then was quenched with the addition of 11 μL of a solution of formic acid and L-Cystathionine to make a final concentration of 1% formic acid and 10 μM L-Cystathionine. Background and signal strength was determined by addition (or non-addition) of a serial dilution of NMN to a pre-quenched enzyme and cofactor mix.
Quantification of NMN. A mass spectrometry-based assay was used to measure the NAMPT reaction product, β-nicotinamide mononucleotide (NMN), and the internal control (L-Cystathionine). NMN and L-Cystathionine were detected using the services of Biocius Lifesciences with the RapidFire system. In short, the NMN and L-Cystathionine were bound to a graphitic carbon cartridge in 0.1% formic acid, eluted in 30% acetonitrile buffer, and injected into a Sciex 4000 mass spectrometer. The components of the sample were ionized with electrospray ionization and the positive ions were detected. […] The fragments are quantified and the analyzed by the following method.
Determination of IC50 Values. First, the NMN signal was normalized to the L-Cystathionine signal by dividing the NMN signal by the L-Cystathionine signal for each well. The signal from the background wells were averaged and subtracted from the test plates.

[1] = Homo sapiens, A2780, 72 h, read-out: Cell Proliferation (IC50), A2780 cells, 72 h, sulforhodamine B
[2] = Homo sapiens, A2780, 72 h, read-out: Cell Proliferation (IC50)

NAMPT, sequence (P43490 whole entry): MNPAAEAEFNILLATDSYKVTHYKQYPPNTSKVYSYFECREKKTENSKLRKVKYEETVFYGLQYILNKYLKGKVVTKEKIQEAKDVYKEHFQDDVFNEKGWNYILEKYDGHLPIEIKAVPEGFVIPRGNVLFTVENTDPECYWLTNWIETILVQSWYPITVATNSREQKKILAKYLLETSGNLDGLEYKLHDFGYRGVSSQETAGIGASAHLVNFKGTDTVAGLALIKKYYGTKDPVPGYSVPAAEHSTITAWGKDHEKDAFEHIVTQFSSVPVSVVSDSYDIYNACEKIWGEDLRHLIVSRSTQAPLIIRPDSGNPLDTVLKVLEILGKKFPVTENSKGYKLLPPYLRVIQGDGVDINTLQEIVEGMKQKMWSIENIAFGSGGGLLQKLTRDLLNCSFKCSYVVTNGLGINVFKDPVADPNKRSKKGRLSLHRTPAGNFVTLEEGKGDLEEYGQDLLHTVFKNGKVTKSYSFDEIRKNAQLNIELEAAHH

| SMILES | IC50 (A2780 cells; [1]) [nM] | IC50 (NAMPT) [nM] | IC50 (A2780 cells; [2]) [nM] | IC50 (A2780 cells; read-out: Cell Proliferation (IC50), A2780 cells, 72 h, sulforhodamine B) [nM] |
| --- | --- | --- | --- | --- |
| O=C(NCc1ccc(S(=O)(=O)c2ccc(N3CCOCC3)cc2)cn1)c1ccc2nccn2c1 [Example 30, Imidazo[1,2-a]pyridine-6-carboxylic acid (5-(4-morpholin-4-yl-benzenesulfonyl)-pyridin-2-ylmethyl]-amide] | 1.6 | 7.2 |  |  |
| O=C(NCc1ccc([S+]([O-])c2cc(F)cc(F)c2)cn1)c1cnc2[nH]ncc2c1 (racemic) [Example 15, 1H-Pyrazolo[3,4-b]pyridine-5-carboxylic acid [5-(3,5-difluoro-benzenesulfinyl)-pyridin-2-ylmethyl]-amide (racemic)] |  | 357 | 309 |  |
| Nc1ccc(S(=O)(=O)c2ccc(CNC(=O)c3cc4ccncc4o3)nc2)cn1 [Example 110, N-[[5-[(6-amino-3-pyridyl)sulfonyl]-2-pyridyl]methyl]furo[2,3-c]pyridine-2-carboxamide] |  | 13.3 | 25.9 |  |
| O=C(NCc1ccc(S(=O)(=O)c2ccc(N3CCOCC3)nc2)cn1)c1cc2ccncc2o1 [Example 52, Furo[2,3-c]pyridine-2-carboxylic acid [5-(6-morpholin-4-yl-pyridine-3-sulfonyl)-pyridin-2-ylmethyl]-amide] | 0.5 | 2 |  |  |
| CN(C)c1ccc(S(=O)(=O)c2ccc(CNC(=O)c3cnc4nccn4c3)nc2)cn1 [Example 69, Imidazo[1,2-a]pyrimidine-6-carboxylic acid (5-(6-dimethylamino-pyridine-3-sulfonyl)-pyridin-2-ylmethyl]-amide] |  | 5.4 | 25.9 |  |
| CN1CCN(c2ccc(S(=O)(=O)c3ccc(CNC(=O)c4ccc5nccn5c4)nc3)cn2)CC1 [Example 46, Imidazo[1,2-a]pyridine-6-carboxylic acid {5-[6-(4-methyl-piperazin-1-yl)-pyridine-3-sulfonyl]-pyridin-2-ylmethyl}-amide] |  | 6.9 | 1.6 |  |
| COc1cccc(S(=O)(=O)c2ccc(CNC(=O)c3cnc4[nH]ncc4c3)nc2)c1 [Example 34, 1H-Pyrazolo[3,4-b]pyridine-5-carboxylic acid [5-(3-methoxy-benzenesulfonyl)-pyridin-2-ylmethyl]-amide] |  | 59.9 | 104 |  |
| CN(C)c1ncc(S(=O)(=O)c2ccc(CNC(=O)c3cc4ccncc4o3)nc2)s1 [Example 93, Furo[2,3-c]pyridine-2-carboxylic acid [5-(2-dimethylamino-thiazole-5-sulfonyl)-pyridin-2-ylmethyl]-amide] |  | 4.9 | 1.16 |  |
| O=C(NCc1ccc(S(=O)(=O)c2cccc(F)c2)cn1)N1Cc2ccncc2C1 [Example 100, 1,3-Dihydro-pyrrolo[3,4-c]pyridine-2-carboxylic acid [5-(3-fluoro-benzenesulfonyl)-pyridin-2-ylmethyl]-amide] |  | 11.1 | 76.6 |  |
| O=C(NCc1ncc(S(=O)(=O)c2ccccc2)cn1)c1cnc2[nH]ncc2c1 [Example 6, 1H-Pyrazolo[3,4-b]pyridine-5-carboxylic acid (5-benzenesulfonyl-pyrimidin-2-ylmethyl)-amide] | 2000 | 108 |  |  |
| O=C(NCc1ccc(S(=O)(=O)c2ccc(N3CCOCC3)cc2)cn1)c1cnc2nccn2c1 [Example 38, Imidazo[1,2-a]pyrimidine-6-carboxylic acid [5-(4-morpholin-4-yl-benzenesulfonyl)-pyridin-2-ylmethyl]-amide] | 10 | 2.1 |  |  |
| Cc1ccc(S(=O)(=O)c2ccc(CNC(=O)c3ccc4nccn4c3)nc2)cn1 [Example 92, Imidazo[1,2-a]pyridine-6-carboxylic acid [5-(6-methyl-pyridine-3-sulfonyl)-pyridin-2-ylmethyl]-amide] | 56.8 | 33.9 |  |  |
| CN(C)c1ccc(S(=O)(=O)c2ccc(CNC(=O)c3cc4ccncc4o3)nc2)cn1 [Example 67, Furo[2,3-c]pyridine-2-carboxylic acid [5-(6-dimethylamino-pyridine-3-sulfonyl)-pyridin-2-ylmethyl]-amide] |  | 2.6 | 1.9 |  |
| O=C(NCc1ccc([S+]([O-])c2cc(F)cc(F)c2)cn1)c1ccc2nccn2c1 (racemic) [Example 55, Imidazo[1,2-a]pyridine-6-carboxylic acid [5-(3,5-difluoro-benzenesulfinyl)-pyridin-2-ylmethyl]-amide (racemic)] |  | 15.9 |  | 41.9 |
| CN(C)c1ncc(S(=O)(=O)c2ccc(CNC(=O)c3ccc4nccn4c3)nc2)s1 [Example 74, Imidazo[1,2-a]pyridine-6-carboxylic acid [5-(2-dimethylamino-thiazole-5-sulfonyl)-pyridin-2-ylmethyl]-amide] |  | 7.8 | 2.4 |  |
| O=C(NCc1ccc(S(=O)(=O)C2CCN(C3COC3)CC2)cn1)N1Cc2ccncc2C1 [Example 104, 1,3-Dihydro-pyrrolo[3,4-c]pyridine-2-carboxylic acid [5-(1-oxetan-3-yl-piperidine-4-sulfonyl)-pyridin-2-ylmethyl]-amide] |  | 67.9 | 116 |  |

Results, then the compound that gave them:

| IC50 (A2780 cells; [1]) [nM] | IC50 (NAMPT) [nM] | IC50 (A2780 cells; [2]) [nM] | IC50 (A2780 cells; read-out: Cell Proliferation (IC50), A2780 cells, 72 h, sulforhodamine B) [nM] | SMILES |
| --- | --- | --- | --- | --- |
|  | 9.45 | 2.84 |  | O=C(NCc1ccc(S(=O)(=O)c2cnc(N3CCCC3)s2)cn1)c1cc2ccncc2o1 [Example 138, N-[[5-(2-pyrrolidin-1-ylthiazol-5-yl)sulfonyl-2-pyridyl]methyl]furo[2,3-c]pyridine-2-carboxamide] |
|  | 2000 | 2000 |  | O=C(NCc1ccc(S(=O)(=O)c2ccccc2)cn1)N1Cc2cn[nH]c2C1 [Example 178, N-[[5-(benzenesulfonyl)-2-pyridyl]methyl]-4,6-dihydro-1H-pyrrolo[3,4-c]pyrazole-5-carboxamide] |
|  | 32.7 | 36.3 |  | O=C(NCc1ccc(S(=O)(=O)C2CCN(C3CCOC3)CC2)cn1)N1Cc2ccncc2C1 (stereo not shown) [Example 129, N-[[5-[(1-tetrahydrofuran-3-yl-4-piperidyl)sulfonyl]-2-pyridyl]methyl]-1,3-dihydropyrrolo[3,4-c]pyridine-2-carboxamide] |
|  | 68.2 | 2000 |  | COCC(=O)N1CCC(S(=O)(=O)c2ccc(CNC(=O)N3Cc4ccncc4C3)nc2)CC1 [Example 121, N-[[5-[[1-(2-methoxyacetyl)-4-piperidyl]sulfonyl]-2-pyridyl]methyl]-1,3-dihydropyrrolo[3,4-c]pyridine-2-carboxamide] |
|  | 14.7 | 3.11 |  | COc1cc(OC)cc(S(=O)(=O)c2ccc(CNC(=O)c3cnc4[nH]ncc4c3)nc2)c1 [Example 139, N-[[5-(3,5-dimethoxyphenyl)sulfonyl-2-pyridyl]methyl]-1H-pyrazolo[3,4-b]pyridine-5-carboxamide] |
|  | 247 | 106 |  | O=C(NCc1ccc(S(=O)(=O)C2CCN(CC(F)(F)F)CC2)cn1)c1ccc2nccn2c1 [Example 152, N-[[5-[[1-(2,2,2-trifluoroethyl)-4-piperidyl]sulfonyl]-2-pyridyl]methyl]imidazo[1,2-a]pyridine-6-carboxamide] |
|  | 14 | 10.2 |  | O=C(NCc1ccc(S(=O)(=O)c2ccc(N3CCOCC3)nc2)cn1)N1Cc2ccncc2C1 [Example 125, N-[[5-[(6-morpholino-3-pyridyl)sulfonyl]-2-pyridyl]methyl]-1,3-dihydropyrrolo[3,4-c]pyridine-2-carboxamide] |

From patent publication US9458172B2, “Pyridinyl and pyrimidinyl sulfoxide and sulfone derivatives” (priority 2012, dated 2016)
